Measured values from BigSolDB 2.1.

Cc1nc(-c2ccc(OCC(C)C)c(C#N)c2)sc1C(=O)O
solubility (mole fraction)
Details | 293.15 K | 298.15 K | 303.15 K | 308.15 K | 313.15 K | 318.15 K | 323.15 K | 328.15 K
in acetone | 0.00623 | 0.00743 | 0.00921 | 0.0107 | 0.0129 | 0.0147 | 0.0162 | 0.0171
in ethanol | 0.00122 | 0.00177 | 0.00269 | 0.00401 | 0.00584 | 0.00836 | 0.0109 | 0.0143
in ethyl acetate | 0.00376 | 0.00456 | 0.00516 | 0.00643 | 0.00732 | 0.00828 | 0.00975 | 0.0114
in methanol | 0.000524 | 0.000856 | 0.00117 | 0.00162 | 0.00229 | 0.00325 | 0.0045 | 0.00685
